Results as given in PubChem BioAssay (NCI).
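Five compound concentrations were applied to cells in 96-well plates for 48 hours; endpoints were derived by simple linear interpolation of the resulting dose-response curve. TGI: concentration producing complete growth inhibition.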

Tests used:
Experiment in all cases: inhibition of tumour cell growth, NCI panel, 48 h
[1] = tested on: HT29 colon
[2] = tested on: SK-MEL-2 melanoma
[3] = tested on: 786-0 renal
[4] = tested on: U251 CNS
[5] = tested on: MOLT-4 leukemia
[6] = tested on: SF-295 CNS
[7] = tested on: OVCAR-5 ovarian
[8] = tested on: HCT-116 colon
[9] = tested on: LXFL 529 NSCLC
[10] = tested on: RPMI-8226 leukemia
[11] = tested on: TK-10 renal
[12] = tested on: EKVX NSCLC
[13] = tested on: SNB-75 CNS
[14] = tested on: K-562 leukemia
[15] = tested on: DMS 273 small cell lung
[16] = tested on: COLO 205 colon
[17] = tested on: A549 NSCLC
[18] = tested on: XF 498 CNS
[19] = tested on: NCI-H226 lung
[20] = tested on: OVCAR-3 ovarian
[21] = tested on: A498 renal
[22] = tested on: SNB-19 CNS
[23] = tested on: CAKI-1 renal
[24] = tested on: M14 melanoma
[25] = tested on: OVCAR-8 ovarian
[26] = tested on: DMS 114 small cell lung
[27] = tested on: SK-MEL-28 melanoma
[28] = tested on: RXF-631 renal
[29] = tested on: SR leukemia
[30] = tested on: NCI-H522 lung
[31] = tested on: KM12 colon
[32] = tested on: UO-31 renal
[33] = tested on: NCI-H23 lung
[34] = tested on: HCT-15 colon
[35] = tested on: LOX IMVI melanoma
[36] = tested on: MALME-3M melanoma
[37] = tested on: ACHN renal
[38] = tested on: IGROV1 ovarian
[39] = tested on: SNB-78 CNS
[40] = tested on: UACC-257 melanoma
[41] = tested on: UACC-62 melanoma
[42] = tested on: DLD-1 colon
[43] = tested on: HOP-18 NSCLC
[44] = tested on: SW-620 colon
[45] = tested on: HL-60(TB) leukemia
[46] = tested on: SK-MEL-5 melanoma
[47] = tested on: SF-539 CNS
[48] = tested on: OVCAR-4 ovarian
[49] = tested on: RXF 393 renal
[50] = tested on: HOP-62 NSCLC
[51] = tested on: SK-OV-3 ovarian
[52] = tested on: M19-MEL melanoma
[53] = tested on: HCC-2998 colon
[54] = tested on: HOP-92 NSCLC
[55] = tested on: KM20L2 colon
[56] = tested on: SN12C renal
[57] = tested on: DU-145 prostate
[58] = tested on: SF-268 CNS
[59] = tested on: MCF7 breast
[60] = tested on: CCRF-CEM leukemia
[61] = tested on: T-47D breast
[62] = tested on: NCI-H460 lung
[63] = tested on: PC-3 prostate
[64] = tested on: HS 578T breast
[65] = tested on: MDA-MB-231 breast
[66] = tested on: MDA-N
[67] = tested on: BT-549 breast

With Nc1c(O)cc(N=C2C(=O)C=CC=C2C(=O)O)c(O)c1C(=O)O the TGI [1] was over 100 µM, the TGI [2] was over 91.2 µM and the TGI [3] was over 100 µM. The TGI [4] was over 100 µM, the TGI [5] was over 100 µM and the TGI [6] was over 100 µM. It also gave a TGI [7] of over 100 µM, a TGI [8] of over 100 µM and a TGI [9] of over 100 µM. The TGI [10] was over 100 µM, the TGI [11] was over 100 µM and the TGI [12] was over 100 µM. For the same compound, the TGI [13] was over 100 µM, the TGI [14] was over 100 µM and the TGI [15] was over 100 µM. The TGI [16] was over 100 µM, the TGI [17] was over 100 µM and the TGI [18] was over 100 µM. The TGI [19] was over 100 µM, the TGI [20] was over 100 µM and the TGI [21] was over 100 µM. For the same compound, the TGI [22] was over 100 µM, the TGI [23] was over 100 µM and the TGI [24] was over 59.2 µM. It also gave a TGI [25] of over 100 µM, a TGI [26] of over 100 µM and a TGI [27] of over 41.3 µM. The TGI [28] was over 100 µM, the TGI [29] was over 100 µM and the TGI [30] was over 100 µM. It also gave a TGI [31] of over 100 µM, a TGI [32] of over 100 µM and a TGI [33] of over 100 µM. It also gave a TGI [34] of over 100 µM, a TGI [35] of over 100 µM and a TGI [36] of over 57.4 µM. For the same compound, the TGI [37] was over 100 µM, the TGI [38] was over 100 µM and the TGI [39] was over 100 µM. It also gave a TGI [40] of over 100 µM, a TGI [41] of over 100 µM and a TGI [42] of over 31.6 µM. The TGI [43] was over 100 µM, the TGI [44] was over 100 µM and the TGI [45] was over 100 µM. For the same compound, the TGI [46] was over 100 µM, the TGI [47] was over 100 µM and the TGI [48] was over 100 µM. For the same compound, the TGI [49] was over 31.6 µM, the TGI [50] was over 100 µM and the TGI [51] was over 100 µM. It also gave a TGI [52] of 37.9 µM, a TGI [53] of over 31.6 µM and a TGI [54] of over 100 µM. It also gave a TGI [55] of over 100 µM and a TGI [56] of over 100 µM.
For O=[N+]([O-])c1ccc(C2CC(c3ccccc3Cl)=Nc3ccccc3S2=O)cc1 (stereo not drawn), the TGI [1] was 5.73 µM, the TGI [57] was 34.1 µM and the TGI [58] was 30.5 µM. The TGI [2] was 51.7 µM, the TGI [3] was 3.31 µM and the TGI [5] was 7.47 µM. It also gave a TGI [6] of 15.3 µM, a TGI [7] of 18.6 µM and a TGI [8] of 3.49 µM. The TGI [9] was 3.54 µM, the TGI [10] was 4.19 µM and the TGI [11] was 19.9 µM. The TGI [12] was 35.4 µM, the TGI [13] was 21.4 µM and the TGI [14] was 4.57 µM. For the same compound, the TGI [15] was 8.87 µM, the TGI [16] was 22.1 µM and the TGI [17] was 38 µM. The TGI [59] was 7.92 µM, the TGI [18] was 18.4 µM and the TGI [19] was 17.6 µM. For the same compound, the TGI [20] was 8.12 µM, the TGI [21] was 6.03 µM and the TGI [22] was 12.4 µM. For the same compound, the TGI [23] was 4.33 µM, the TGI [24] was 20.7 µM and the TGI [25] was 11.7 µM. The TGI [26] was 4.36 µM, the TGI [60] was 4.37 µM and the TGI [27] was 13.8 µM. For the same compound, the TGI [28] was 21.5 µM, the TGI [61] was 44.2 µM and the TGI [29] was 6.64 µM. For the same compound, the TGI [30] was 3.28 µM, the TGI [31] was 9.97 µM and the TGI [32] was 4.74 µM. For the same compound, the TGI [33] was 11.7 µM, the TGI [34] was 5.3 µM and the TGI [35] was 3.79 µM. The TGI [36] was 32 µM, the TGI [62] was 17.9 µM and the TGI [63] was 17.3 µM. The TGI [37] was 4.26 µM, the TGI [38] was 8.57 µM and the TGI [39] was 56 µM. It also gave a TGI [40] of 48.3 µM, a TGI [64] of 7.46 µM and a TGI [41] of 6.73 µM. The TGI [42] was 4.1 µM, the TGI [43] was 39.5 µM and the TGI [44] was 3.91 µM. The TGI [45] was 3.63 µM, the TGI [46] was 14.2 µM and the TGI [47] was 15.9 µM. For the same compound, the TGI [48] was 6.12 µM, the TGI [49] was 4.05 µM and the TGI [50] was 23.4 µM. The TGI [51] was 52.9 µM, the TGI [52] was 6.89 µM and the TGI [53] was 6.85 µM. It also gave a TGI [54] of 31.5 µM, a TGI [65] of 5.29 µM and a TGI [55] of 7.04 µM. It also gave a TGI [66] of 21.8 µM, a TGI [67] of 31.1 µM and a TGI [56] of 5.2 µM.
In the case of CN=C(NC(=S)N(C)C)N(C)C, the TGI [1] is reported as over 100 µM, the TGI [58] is reported as over 100 µM and the TGI [2] is reported as over 100 µM. It also gave a TGI [3] of over 100 µM, a TGI [4] of over 100 µM and a TGI [5] of over 100 µM. It also gave a TGI [6] of over 100 µM, a TGI [7] of over 100 µM and a TGI [8] of over 100 µM. The TGI [9] was over 100 µM, the TGI [10] was over 100 µM and the TGI [11] was over 100 µM. For the same compound, the TGI [12] was over 100 µM, the TGI [13] was over 100 µM and the TGI [14] was over 100 µM. For the same compound, the TGI [15] was over 100 µM, the TGI [17] was over 100 µM and the TGI [18] was over 100 µM. It also gave a TGI [19] of over 100 µM, a TGI [21] of over 100 µM and a TGI [22] of over 100 µM. It also gave a TGI [23] of over 100 µM, a TGI [24] of over 100 µM and a TGI [25] of over 100 µM. The TGI [26] was over 100 µM, the TGI [60] was over 100 µM and the TGI [27] was over 100 µM. The TGI [28] was over 100 µM, the TGI [29] was over 100 µM and the TGI [30] was over 100 µM. It also gave a TGI [31] of over 100 µM, a TGI [32] of over 100 µM and a TGI [33] of over 100 µM. The TGI [34] was over 100 µM, the TGI [36] was over 100 µM and the TGI [62] was over 100 µM. For the same compound, the TGI [37] was over 100 µM, the TGI [38] was over 100 µM and the TGI [39] was over 100 µM. The TGI [40] was over 100 µM, the TGI [41] was over 100 µM and the TGI [42] was over 100 µM. For the same compound, the TGI [43] was over 100 µM, the TGI [44] was over 100 µM and the TGI [45] was over 100 µM. For the same compound, the TGI [46] was over 100 µM, the TGI [47] was over 100 µM and the TGI [48] was over 100 µM. For the same compound, the TGI [49] was over 100 µM, the TGI [50] was over 100 µM and the TGI [51] was over 100 µM. For the same compound, the TGI [52] was over 100 µM, the TGI [53] was over 100 µM and the TGI [54] was over 100 µM. The TGI [55] was over 100 µM and the TGI [56] was over 100 µM.
